#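 48-hour exposure; five concentrations; linearly interpolated endpoints. At the GI50, growth is halved. TGI: total growth inhibition.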
# Columns and labels:
# Assay in all cases: growth of human tumour cells (NCI), 48 h
# DU-145 prostate = test system: DU-145 prostate
# HCT-116 colon = test system: HCT-116 colon
# SF-295 CNS = test system: SF-295 CNS
# 786-0 renal = test system: 786-0 renal
# NCI-H522 lung = test system: NCI-H522 lung
# NCI-H460 lung = test system: NCI-H460 lung
# HCT-15 colon = test system: HCT-15 colon
# OVCAR-8 ovarian = test system: OVCAR-8 ovarian
# NCI-H23 lung = test system: NCI-H23 lung
# OVCAR-4 ovarian = test system: OVCAR-4 ovarian
# A549 NSCLC = test system: A549 NSCLC
# MOLT-4 leukemia = test system: MOLT-4 leukemia
# OVCAR-3 ovarian = test system: OVCAR-3 ovarian
# SW-620 colon = test system: SW-620 colon
# MDA-MB-231 breast = test system: MDA-MB-231 breast
# NCI/ADR-RES ovarian = test system: NCI/ADR-RES ovarian
# PC-3 prostate = test system: PC-3 prostate
# SR leukemia = test system: SR leukemia
# UACC-257 melanoma = test system: UACC-257 melanoma
# SK-MEL-28 melanoma = test system: SK-MEL-28 melanoma
# UACC-62 melanoma = test system: UACC-62 melanoma
# HL-60(TB) leukemia = test system: HL-60(TB) leukemia
# RPMI-8226 leukemia = test system: RPMI-8226 leukemia
# MALME-3M melanoma = test system: MALME-3M melanoma
# NCI-H226 lung = test system: NCI-H226 lung
# COLO 205 colon = test system: COLO 205 colon
# BT-549 breast = test system: BT-549 breast
# HCC-2998 colon = test system: HCC-2998 colon
compound,measurement,setting,value
Cc1ccccc1OCC(O)CN1CCN(c2ccc(Cl)cc2)CC1 (stereo unspecified),GI50,DU-145 prostate,17.9 µM
same,TGI,DU-145 prostate,32.7 µM
same,GI50,HCT-116 colon,14.6 µM
same,TGI,HCT-116 colon,29.3 µM
same,GI50,SF-295 CNS,14.4 µM
same,TGI,SF-295 CNS,29.6 µM
same,GI50,786-0 renal,17.4 µM
same,TGI,786-0 renal,32.6 µM
same,GI50,NCI-H522 lung,14.1 µM
same,TGI,NCI-H522 lung,29.2 µM
same,GI50,NCI-H460 lung,16.7 µM
same,TGI,NCI-H460 lung,34.1 µM
same,GI50,HCT-15 colon,19.2 µM
same,TGI,HCT-15 colon,40.2 µM
same,GI50,OVCAR-8 ovarian,21 µM
same,TGI,OVCAR-8 ovarian,44.4 µM
same,GI50,NCI-H23 lung,15.8 µM
same,TGI,NCI-H23 lung,34.5 µM
same,GI50,OVCAR-4 ovarian,16 µM
same,TGI,OVCAR-4 ovarian,30.2 µM
same,GI50,A549 NSCLC,30.2 µM
same,TGI,A549 NSCLC,84 µM
same,GI50,MOLT-4 leukemia,14.7 µM
same,TGI,MOLT-4 leukemia,57.5 µM
same,GI50,OVCAR-3 ovarian,16.6 µM
same,TGI,OVCAR-3 ovarian,31.7 µM
same,GI50,SW-620 colon,16.1 µM
same,TGI,SW-620 colon,33.1 µM
same,GI50,MDA-MB-231 breast,14.4 µM
same,TGI,MDA-MB-231 breast,29.8 µM
same,GI50,NCI/ADR-RES ovarian,14.8 µM
same,TGI,NCI/ADR-RES ovarian,29.5 µM
same,GI50,PC-3 prostate,11.7 µM
same,TGI,PC-3 prostate,25.9 µM
same,GI50,SR leukemia,14.3 µM
same,TGI,SR leukemia,40.1 µM
same,GI50,UACC-257 melanoma,20.6 µM
same,TGI,UACC-257 melanoma,37.9 µM
same,GI50,SK-MEL-28 melanoma,18.7 µM
same,TGI,SK-MEL-28 melanoma,33.5 µM
same,GI50,UACC-62 melanoma,13.8 µM
same,TGI,UACC-62 melanoma,27.5 µM
same,GI50,HL-60(TB) leukemia,17.6 µM
same,TGI,HL-60(TB) leukemia,56 µM
same,GI50,RPMI-8226 leukemia,16.3 µM
same,TGI,RPMI-8226 leukemia,40.8 µM
same,GI50,MALME-3M melanoma,15.2 µM
same,TGI,MALME-3M melanoma,31.2 µM
same,GI50,NCI-H226 lung,18.6 µM
same,TGI,NCI-H226 lung,35.9 µM
same,GI50,COLO 205 colon,15.7 µM
same,TGI,COLO 205 colon,30.3 µM
same,GI50,BT-549 breast,18.3 µM
same,TGI,BT-549 breast,33.3 µM
same,GI50,HCC-2998 colon,16.7 µM
same,TGI,HCC-2998 colon,31.6 µM

# Reference: PubChem BioAssay (NCI)
